Experimental data: patent US8871463B2, “Method for screening a glutamate release inhibitor in an astrocyte” (Korea Institute of Science and Technology, priority 2012, dated 2014)
Entries after “also recorded” stand apart in the source; their conditions may differ.

What was measured:
[1] = test system: primary cultured astrocyte; assay type: cell-based, mouse
GluR1-L497Y = GluR1-L497Y (Homo sapiens, UniProt P42261, L497Y); assay type: cell-based
Best1 channel [2] = target: Best1 channel (Mus musculus, UniProt O88870); assay type: cell-based
Best1 channel [3] = target: T1, Best1 channel (Mus musculus, UniProt O88870); conditions: intracellular Ca2+; read-out: EC50 of activation of Best1 channel; cited from earlier work
T1 sequence (O88870 1-551): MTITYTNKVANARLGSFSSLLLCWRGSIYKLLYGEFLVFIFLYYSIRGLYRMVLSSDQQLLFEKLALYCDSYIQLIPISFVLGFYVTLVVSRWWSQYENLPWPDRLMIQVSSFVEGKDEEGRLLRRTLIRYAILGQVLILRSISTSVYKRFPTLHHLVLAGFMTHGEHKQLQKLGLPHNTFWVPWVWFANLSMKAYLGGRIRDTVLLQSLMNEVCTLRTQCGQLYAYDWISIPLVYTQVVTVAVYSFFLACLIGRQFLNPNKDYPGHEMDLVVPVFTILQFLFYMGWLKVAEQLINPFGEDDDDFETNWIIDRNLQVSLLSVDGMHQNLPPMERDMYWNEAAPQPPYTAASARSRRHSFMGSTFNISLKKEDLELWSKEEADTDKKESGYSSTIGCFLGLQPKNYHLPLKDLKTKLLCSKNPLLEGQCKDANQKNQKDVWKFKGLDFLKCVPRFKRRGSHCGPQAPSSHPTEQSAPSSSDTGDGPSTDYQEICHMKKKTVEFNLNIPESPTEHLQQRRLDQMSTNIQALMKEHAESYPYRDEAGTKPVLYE

mouse TREK-1 = target: T2, mouse TREK-1 (Mus musculus, UniProt P97438); experiment: TREK-1-mediated whole-cell current in COS-7 cells; assay type: cell-based; conditions: COS-7 cell expressing TREK-1; voltage ramp
T2 construct: expressed in transfected cells; host or cells: COS-7
T2 sequence (P97438 1-426): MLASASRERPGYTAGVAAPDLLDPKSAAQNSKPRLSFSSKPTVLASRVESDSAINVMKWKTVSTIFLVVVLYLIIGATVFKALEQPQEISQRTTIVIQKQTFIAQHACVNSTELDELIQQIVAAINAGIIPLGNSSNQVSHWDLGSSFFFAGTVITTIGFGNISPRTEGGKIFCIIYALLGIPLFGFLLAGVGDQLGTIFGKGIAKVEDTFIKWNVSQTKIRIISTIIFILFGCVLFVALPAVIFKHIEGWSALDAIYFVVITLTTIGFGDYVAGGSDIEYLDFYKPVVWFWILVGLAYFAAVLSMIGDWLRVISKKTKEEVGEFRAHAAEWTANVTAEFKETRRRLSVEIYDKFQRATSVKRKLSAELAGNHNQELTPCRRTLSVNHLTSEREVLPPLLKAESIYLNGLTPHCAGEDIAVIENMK
Protocol: (§1) Current-voltage (I-V) curves were recorded from COS-7 expressing TREK-1. I-V curves were established by applying 1000-ms-duration voltage ramps from +70 to −100 mV. Data were acquired by an Axopatch 200A amplifier controlled by Clampex 9.2 via Digidata 1322A data acquisition system (Molecular Devices). Internal solution contained the following (in mM: 150 KCl, 5 EGTA, 10 HEPES, 0.5 CaCl2, 1 MgCl2, pH 7.3, 280 osm). Bath solution contains the following (in mM: 150 NaCl, 10 HEPES, 3 KCl, 2 CaCl2, 2MgCl2, and 5.5 glucose, pH 7.3). The pipette solution for observing Ca^2+ activated Cl^− current (Best1 channel current) whole-cell patch clamp in astrocytes contained the following (in mM: 135 NMDG-Cl, 5 MgCl2, 5 (Ca^2+)-EGTA-N-methyl-D-glucamine (NMDG), 10 HEPES, and 10 glucose, pH 7.3, adjusted with NMDG). We used Ca^2+-free intracellular solution composed of the following (in mM: 135 NMDG-Cl, 5 EGTA-NMDG, 2 MgCl2, 8 HEPES, and 10 sucrose, pH 7.3, adjusted with NMDG). I-V curves were established by applying 1000-ms-duration voltage ramps from +100 to −100 mV.

astrocyte = assay type: cell-based, mouse
TREK-1 [4] = experiment: Two-cell sniffer patch: Gβγ-induced glutamate release from astrocyte; assay type: cell-based, mouse; conditions: 6.09 nM Gβγ, 5 mM glutamate in pipette; peptides 100 μM
Protocol: On the day of sniffer-patch, cultured astrocytes (HEK cells added) were transferred to a microscope stage for imaging. External solution contained (in mM): 150 NaCl, 10 Hepes, 3 KCl, 2 CaCl2, 2 MgCl2, 5.5 glucose, pH adjusted to pH 7.3 and osmolarity to 325 mOsmol kg* Rupture current were recorded from astrocyte under voltage (Vh=−70 mV) using Multiclamp 700B amplifier (Molecular Devices), acquired with pClamp 9.2. Recording electrodes (4-7MΩ) were filled with (mM): 5 glutamate, 135 CsCl, 0.5 CaCl2, 10 Hepes, 4 Mg-ATP, 0.3 Na3-GTP, 10 BAPTA and 6.09 nM Gβγ (pH adjusted to 7.3 with CsOH and osmolarity adjusted to 290-310 mOsm/kg with sucrose). In the case of gene silencing, transfection method is the same as simultaneous recording for sniffer patch. In competition assay, 100 μM N1-N4 synthesized peptides were added to pipette for recording astrocyte. GluR1LY-mediated currents were recorded from HEK cells expressing GluR1-L497Y under voltage clamp (Vh=−70 mV) using Multiclamp 700B amplifier (Molecular Devices), acquired with pClamp 9.2. Recording electrodes (4-7MΩ) were filled with (mM): 110 Cs-Gluconate, 30 CsCl, 0.5 CaCl2, 10 Hepes, 4 Mg-ATP, 0.3 Na3-GTP and 10 BAPTA (pH adjusted to 7.3 with CsOH and osmolarity adjusted to 290-310 mOsm/kg with sucrose). After rupture on the side of HEK cell, GluR1-L497Y-meidated full activation was induced by the treatment of 1 mM glutamate. And then Gβγ on the side of astrocyte was injected with the rupture after 10 min later. This rupture induced both inward current on both recording between astrocyte and HEK cell expressing GluR1-L497Y.

TREK-1 [5] = experiment: Gβγ-induced whole-cell current in cultured astrocytes; assay type: cell-based, mouse; conditions: 6.09 nM Gβγ; for Gβγ-induced whole-cell current: competitive peptide in patch pipette; for Gβγ-induced conductance: 150 [Glu]in, gene silencing
Protocol: as §1
We then asked whether Gβγ can directly open any channels in cultured astrocytes. We performed whole-cell current recording with purified Gβγ in the patch-pipette according to the method of Experimentation 12. The results were shown in FIGS. 3d to 3f, FIG. 3i, and FIGS. 12d to 12f.

GNG4 = target: T3, GNG4 (Homo sapiens, UniProt P50150); experiment: Yeast two hybrid interaction of TREK-1 N-terminal segments with GNG4; assay type: binding
T3 construct: expressed in transfected cells; host or cells: yeast strain AH109
T3 sequence (P50150 1-75): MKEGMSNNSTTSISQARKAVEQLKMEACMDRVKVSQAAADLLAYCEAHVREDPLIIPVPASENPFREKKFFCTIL
From the text: The TREK-1-N 1-4 were ligated into pGBKT7 encoding for the GAL4 DNA binding domain (BD) and the gamma 4 was cloned into pGADT7 encoding for the activation domain (AD). To assess the protein-protein interaction between TREK-1-N and gamma 4, both BD/TREK-1-N and AD/gamma 4 were co-transformed into the yeast strain AH109. AH109 is unable to synthesize histidine. However, interaction between TREK1-N and gamma 4 enables the yeast to make the His3 enzyme, thereby permitting histidine biosynthesis and growth on His minimal medium.

Chain of GluR1-L497Y (P42261 19-906 L497Y limits assumed): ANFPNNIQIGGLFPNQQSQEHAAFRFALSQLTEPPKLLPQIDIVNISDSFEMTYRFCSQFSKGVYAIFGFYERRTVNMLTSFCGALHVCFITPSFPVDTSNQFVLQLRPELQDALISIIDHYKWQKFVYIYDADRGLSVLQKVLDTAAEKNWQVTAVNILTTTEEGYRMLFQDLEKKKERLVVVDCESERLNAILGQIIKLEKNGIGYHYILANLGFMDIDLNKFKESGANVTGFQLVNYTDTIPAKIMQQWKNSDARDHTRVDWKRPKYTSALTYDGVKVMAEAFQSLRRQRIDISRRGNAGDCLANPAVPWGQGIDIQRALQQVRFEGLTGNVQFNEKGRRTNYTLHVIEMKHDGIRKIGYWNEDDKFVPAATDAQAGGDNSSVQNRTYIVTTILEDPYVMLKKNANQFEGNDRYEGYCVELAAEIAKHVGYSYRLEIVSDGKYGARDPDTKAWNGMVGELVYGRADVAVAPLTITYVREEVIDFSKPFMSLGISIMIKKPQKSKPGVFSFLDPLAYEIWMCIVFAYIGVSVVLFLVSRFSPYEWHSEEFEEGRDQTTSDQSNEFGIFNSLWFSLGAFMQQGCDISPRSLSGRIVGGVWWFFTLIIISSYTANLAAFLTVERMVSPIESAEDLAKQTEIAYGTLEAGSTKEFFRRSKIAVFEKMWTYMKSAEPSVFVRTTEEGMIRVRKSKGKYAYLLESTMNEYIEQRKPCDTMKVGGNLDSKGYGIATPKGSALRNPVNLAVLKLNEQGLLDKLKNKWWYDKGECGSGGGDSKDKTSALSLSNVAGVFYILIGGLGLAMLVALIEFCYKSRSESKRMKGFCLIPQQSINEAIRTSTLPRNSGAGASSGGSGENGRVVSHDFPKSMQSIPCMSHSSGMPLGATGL

CO/C1=C\C(C)=C\[C@@H](C)[C@@H](O)[C@@H](C)C/C(C)=C/C=C/[C@H](OC)[C@@H]([C@@H](C)[C@@H](O)[C@H](C)[C@@]2(O)C[C@@H](O)[C@H](C)[C@@H](C(C)C)O2)OC1=O [Bafilomycin A1]
fast and slow-modes of TFLLR-induced glutamate release (TFLLR-induced GluR1L497Y-mediated current) [1]: significantly reduction; also recorded: significantly reduced; also recorded: appeared to block | 1 mM glutamate-induced GluR1L497Y-mediated current of sensor cell (GluR1-L497Y): marked reduction | GluR1LY-mediated Ca2+ transient evoked by 1 mM glutamate (GluR1-L497Y): reduces | surface expression of GluR1-L497Y in the sensor cell (GluR1-L497Y): almost completely eliminated | Ca2+-activated anion current (Best1 channel [2]): inhibited

[Ca+2] [Ca^2+]
EC50 (Best1 channel [3]): 0.15 µM

Cc1nc(N=Nc2ccc(S(=O)(=O)[O-])cc2S(=O)(=O)[O-])c(COP(=O)([O-])[O-])c(C=O)c1O.[Na+].[Na+].[Na+].[Na+] [PPADS, pyridoxal phosphate-6-azophenyl-2′,4′-disulfonic acid tetrasodium salt]
TREK-1-mediated current (mouse TREK-1): inhibits | fast-mode of TFLLR-induced glutamate release [1]: appeared to block | 1 mM glutamate-induced GluR1L497Y-mediated current of sensor cell (GluR1-L497Y): non-specific effect

O=C([O-])c1c(Cl)c(Cl)c(Cl)c(Cl)c1-c1c2cc(I)c(=O)c(I)c-2oc2c(I)c([O-])c(I)cc12.[Na+].[Na+] [Rose Bengal]
glutamate release in response to mechanical stimulation (astrocyte): inhibited | fast and slow-modes of TFLLR-induced glutamate release (TFLLR-induced GluR1L497Y-mediated current) [1]: does not inhibit; also recorded: did not have any effect

AAPDLLDPKSA (Competitive peptides N1 of TREK-1)
Gβγ-induced current in astrocyte (TREK-1 [4]): significantly reduced | Gβγ-induced glutamate release (sensor current) (TREK-1 [4]): significantly reduced | Gβγ-induced whole-cell current (TREK-1 [5]): significantly reduced; also recorded: almost inhibit | interaction with GNG4 (GNG4): strongly interacted

AQNSKPRLSFSS (Competitive peptides N2 of TREK-1)
Gβγ-induced whole-cell current (TREK-1 [5]): significantly reduced | interaction with GNG4 (GNG4): strongly interacted

DSAINVMKWKT (Competitive peptides N4 of TREK-1)
Gβγ-induced whole-cell current (TREK-1 [5]): significantly reduced | interaction with GNG4 (GNG4): strongly interacted

TREK-1-shRNA: shRNA for mouse TREK-1 targeted at nucleotides 1043 to 1063 (SEQ ID NO: 17), in pSicoR (guide GCGTGGAGATCTACGACAAGT)
fast-mode of TFLLR-induced glutamate release [1]: selectively eliminated | slow-mode of TFLLR-induced glutamate release [1]: without affecting | Gβγ-induced current in astrocyte (TREK-1 [4]): abolished | Gβγ-induced glutamate release (sensor current) (TREK-1 [4]): abolished | Gβγ-induced conductance (TREK-1 [5]): eliminated | Gβγ-induced conductance (TREK-1 [5]; listed as TREK-1 specific shRNA): almost completely removed
